Non-standard residues stand in square brackets, D forms with d. Residues, ends and D or L forms follow the SMILES beside them. ξ: configuration not given here. ξP = O=C(O)C1CCCN1
What was measured:
[1] = target: T1, Kappa-type opioid receptor (Homo sapiens, UniProt P41145); assay: Binding affinity to kappa opioid receptor (unknown origin)
[2] = target: T2, Mu-type opioid receptor (Homo sapiens, UniProt P35372); assay: Inhibition of mu opioid receptor (unknown origin) expressed in HEK293 cells assessed as inhibition of forskolin-stimulated intracellular cAMP accumulation preincubated for 30 mins followed by forskolin-stimulation and measured after 60 mins; format: functional, cell-based
T2 sequence (P35372 whole entry): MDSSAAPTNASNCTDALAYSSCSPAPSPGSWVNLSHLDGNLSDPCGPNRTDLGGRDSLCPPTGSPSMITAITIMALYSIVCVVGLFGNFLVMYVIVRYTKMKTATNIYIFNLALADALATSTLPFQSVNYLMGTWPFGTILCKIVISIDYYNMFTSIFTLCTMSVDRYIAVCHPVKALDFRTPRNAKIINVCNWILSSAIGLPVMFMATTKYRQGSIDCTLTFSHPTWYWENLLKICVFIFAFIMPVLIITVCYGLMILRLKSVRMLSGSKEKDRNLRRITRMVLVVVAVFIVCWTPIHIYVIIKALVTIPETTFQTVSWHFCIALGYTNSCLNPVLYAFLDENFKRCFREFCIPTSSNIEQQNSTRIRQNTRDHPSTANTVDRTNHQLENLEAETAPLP

[3] = target: T2, Mu-type opioid receptor; assay: Inhibition of mu opioid receptor (unknown origin) expressed in HEK293 cells assessed as inhibition of forskolin-stimulated […] preincubated for 30 mins followed by forskolin-stimulation and measured after 60 mins; format: cell-based
[4] = test system: Mus musculus; assay: Antinociceptive activity in iv dosed Kunming mouse; format: functional
[5] = test system: Mus musculus; assay: Antinociceptive activity in icv dosed Kunming mouse; format: functional; settings: central
[6] = target: T2, Mu-type opioid receptor; assay: Displacement of [3H]DAMGO from mu opioid receptor (unknown origin) expressed in HEK293 cells after 1 hr by liquid scintillation counting; format: cell-based
[7] = target: T3, Delta-type opioid receptor (Homo sapiens, UniProt P41143); assay: Inhibition of delta opioid receptor (unknown origin) in presence of DPDPE by [35S]-GTPgammaS binding assay relative to control; format: functional
T3 sequence (P41143 whole entry): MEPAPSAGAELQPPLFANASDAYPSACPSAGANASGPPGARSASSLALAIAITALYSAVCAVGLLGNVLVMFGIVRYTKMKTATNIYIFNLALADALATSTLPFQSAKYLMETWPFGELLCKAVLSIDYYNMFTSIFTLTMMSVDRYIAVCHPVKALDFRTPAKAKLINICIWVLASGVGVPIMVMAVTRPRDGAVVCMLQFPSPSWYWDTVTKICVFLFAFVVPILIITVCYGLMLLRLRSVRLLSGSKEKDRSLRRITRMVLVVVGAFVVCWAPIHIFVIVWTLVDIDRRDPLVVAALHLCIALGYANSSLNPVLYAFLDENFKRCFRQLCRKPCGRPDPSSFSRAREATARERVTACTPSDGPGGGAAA

[8] = target: T3, Delta-type opioid receptor; assay: Inhibition of delta opioid receptor (unknown origin) in presence of DPDPE by [35S]-GTPgammaS binding assay; format: functional
[9] = target: T3, Delta-type opioid receptor; assay: Inhibition of delta opioid receptor (unknown origin) in presence of DAMGO by [35S]-GTPgammaS binding assay; format: functional
[10] = target: T1, Kappa-type opioid receptor; assay: Inhibition of kappa opioid receptor (unknown origin) in presence of DPDPE by [35S]-GTPgammaS binding assay; format: functional
[11] = target: T3, Delta-type opioid receptor; assay: Inhibition of delta opioid receptor (unknown origin) in presence of DAMGO by [35S]-GTPgammaS binding assay relative to control; format: functional
[12] = target: T2, Mu-type opioid receptor; assay: Inhibition of mu opioid receptor (unknown origin) in presence of DPDPE by [35S]-GTPgammaS binding assay relative to control; format: functional
[13] = target: T2, Mu-type opioid receptor; assay: Inhibition of mu opioid receptor (unknown origin) in presence of DAMGO by [35S]-GTPgammaS binding assay; format: functional
[14] = target: T1, Kappa-type opioid receptor; assay: Inhibition of kappa opioid receptor (unknown origin) in presence of DPDPE by [35S]-GTPgammaS binding assay relative to control; format: functional
[15] = target: T1, Kappa-type opioid receptor; assay: Inhibition of kappa opioid receptor (unknown origin) in presence of DAMGO by [35S]-GTPgammaS binding assay relative to control; format: functional
[16] = target: T2, Mu-type opioid receptor; assay: Inhibition of mu opioid receptor (unknown origin) in presence of DPDPE by [35S]-GTPgammaS binding assay; format: functional
[17] = target: T1, Kappa-type opioid receptor; assay: Inhibition of kappa opioid receptor (unknown origin) in presence of DAMGO by [35S]-GTPgammaS binding assay; format: functional
[18] = target: T3, Delta-type opioid receptor; assay: Inhibition of delta opioid receptor (unknown origin) by radioligand binding assay
[19] = organism: Homo sapiens; assay: Selectivity ratio of IC50 for mu opioid receptor (unknown origin) to IC50 for delta opioid receptor (unknown origin) by MVD assay
[20] = target: T3, Delta-type opioid receptor; assay: Inhibition of delta opioid receptor (unknown origin) by MVD assay
[21] = target: T3, Delta-type opioid receptor; assay: Inhibition of full length delta opioid receptor (unknown origin) assessed as increase in beta arrestin 1 recruitment
[22] = target: T3, Delta-type opioid receptor; assay: Inhibition of full length delta opioid receptor (unknown origin) assessed as inhibition of forskolin-stimulated intracellular cAMP accumulation; format: functional, cell-based
[23] = organism: Homo sapiens; assay: Selectivity ratio of IC50 for mu opioid receptor (unknown origin) to IC50 for delta opioid receptor (unknown origin) by radioligand binding assay
[24] = target: T2, Mu-type opioid receptor; assay: Inhibition of mu opioid receptor (unknown origin)
[25] = target: T3, Delta-type opioid receptor; assay: Inhibition of full length delta opioid receptor (unknown origin) assessed as increase in beta arrestin 2 recruitment
[26] = target: T1, Kappa-type opioid receptor; assay: Inhibition of kappa opioid receptor (unknown origin) by [35S]-GTPgammaS binding assay; format: functional
[27] = test system: Mus musculus; assay: Antinociceptive activity in icv dosed mouse; format: functional
[28] = target: T4, Mu-type opioid receptor (Cavia porcellus, UniProt P97266); assay: Inhibition of mu opioid receptor in guinea pig brain membranes; format: cell membranes
T4 sequence (P97266 whole entry): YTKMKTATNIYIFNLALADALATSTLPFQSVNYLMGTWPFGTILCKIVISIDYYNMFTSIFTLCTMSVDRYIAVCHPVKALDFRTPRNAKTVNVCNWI

[29] = target: T4, Mu-type opioid receptor; assay: Agonist activity at mu opioid receptor in guinea pig brain membranes by [35S]-GTPgammaS binding assay; format: functional, cell membranes
[30] = target: T5, Kappa-type opioid receptor (Cavia porcellus, UniProt P41144); assay: Inhibition of kappa opioid receptor in guinea pig brain membranes; format: cell membranes
T5 sequence (P41144 whole entry): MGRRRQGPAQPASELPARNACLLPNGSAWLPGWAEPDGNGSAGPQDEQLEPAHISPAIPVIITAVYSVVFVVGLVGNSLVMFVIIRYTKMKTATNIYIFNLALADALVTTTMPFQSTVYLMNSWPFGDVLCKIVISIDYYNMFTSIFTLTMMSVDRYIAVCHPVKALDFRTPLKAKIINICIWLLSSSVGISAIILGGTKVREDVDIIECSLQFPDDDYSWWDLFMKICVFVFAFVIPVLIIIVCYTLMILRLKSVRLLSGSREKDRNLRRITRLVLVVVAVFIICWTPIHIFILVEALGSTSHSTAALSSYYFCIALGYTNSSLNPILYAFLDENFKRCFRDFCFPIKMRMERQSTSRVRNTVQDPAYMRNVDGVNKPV

[31] = Agonist activity at delta opioid receptor in guinea pig brain membranes by [35S]-GTPgammaS binding assay; format: cell membranes, Cavia porcellus
[32] = target: T5, Kappa-type opioid receptor; assay: Agonist activity at kappa opioid receptor in guinea pig brain membranes by [35S]-GTPgammaS binding assay; format: functional, cell membranes
[33] = Inhibition of delta opioid receptor in guinea pig brain membranes; format: cell membranes, Cavia porcellus

T1 sequence (P41145 whole entry): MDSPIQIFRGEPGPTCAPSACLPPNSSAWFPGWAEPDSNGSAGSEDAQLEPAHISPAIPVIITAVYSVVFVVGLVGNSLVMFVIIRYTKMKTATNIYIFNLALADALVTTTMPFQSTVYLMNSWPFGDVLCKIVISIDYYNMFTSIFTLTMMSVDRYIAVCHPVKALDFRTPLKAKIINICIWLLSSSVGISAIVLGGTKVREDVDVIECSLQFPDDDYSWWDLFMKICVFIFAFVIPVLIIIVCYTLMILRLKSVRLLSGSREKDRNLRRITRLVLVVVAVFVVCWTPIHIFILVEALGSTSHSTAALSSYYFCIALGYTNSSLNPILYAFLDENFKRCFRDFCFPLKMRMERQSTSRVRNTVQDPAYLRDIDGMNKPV

With `COC(=O)[C@@H]1C[C@H](OC(=O)CSC#N)C(=O)[C@H]2[C@@]1(C)CC[C@H]1C(=O)O[C@H](c3ccoc3)C[C@]21C` [22-THIOCYANATOSALVINORIN A] the Kd [1] was 0.00059 µM.

In the case of `C[C@@H](Cc1ccsc1)NC(=O)NC[C@H](Cc1ccc2ccccc2c1)N(C)C`, the EC50 [2] is reported as 0.0524 to 0.0911 µM and the EC50 [3] is reported as 0.0524 to 0.0911 µM.

In the case of `C=C(C(N)=O)C(NC(=O)[C@H](Cc1ccccc1)NC(=O)[C@@H](C)N(C)C(=O)C(N)Cc1c(C)cc(O)cc1C)c1ccco1` (stereo not given in full), the ED50 [4] is reported as 0.000489 µmol/kg, the ED50 [5] is reported as 0.0226 µmol/kg and the EC50 [6] is reported as 1.77 to 5.15 pM. The Ki [6] was 0.0109 to 0.0511 nM.

`C=C(C(N)=O)C(NC(=O)[C@H](Cc1ccccc1)NC(=O)[C@@H](C)N(C)C(=O)C(N)Cc1c(C)cc(O)cc1C)c1ccccc1` (stereo not given in full) showed an EC50 [6] of 1.77 to 5.15 pM and a Ki [6] of 0.0109 to 0.0511 nM.

`CC[C@@H]1CN2CC[C@]3(Nc4cccc(OC)c4C3=O)[C@@H]2C[C@@H]1/C(=C\OC)C(=O)OC` showed an Emax [7] of 82%, an EC50 [8] of 0.0017 µM and an IC50 [8] of 0.00126 µM. The EC50 [9] was 0.0017 µM, the IC50 [9] was 0.0017 µM and the EC50 [10] was 0.0017 µM. For the same compound, the IC50 [10] was 0.132 µM, the Emax [11] was 82% and the Emax [12] was 82%. The EC50 [13] was 0.0017 µM, the IC50 [13] was 0.00661 µM and the Emax [14] was 82%. The Emax [15] was 82%, the EC50 [16] was 0.0017 µM and the IC50 [16] was 0.000282 µM. The EC50 [17] was 0.0017 µM and the IC50 [17] was 0.132 µM.

With `CC(C)C[C@H](NC(=O)[C@H](CC(=O)O)NC(=O)[C@H](CC(C)C)NC(=O)C1CCCN1C(=O)[C@@H](N)Cc1ccc(O)cc1)C(=O)O` (stereo not given in full) (H-Y[ξP]LDL-OH) the IC50 [18] was 2 µM, the Ratio IC50 [19] was 500 and the IC50 [20] was 51 µM. The EC50 [21] was 79.4 µM, the IC50 [22] was 6.31 µM and the Ratio IC50 [23] was 500. It also gave an IC50 [24] of 1090 µM and an EC50 [25] of 79.4 µM.

Compound `CN(C)[C@H](CNC(=O)NCCc1ccsc1)Cc1cccc2ccccc12` has an EC50 [2] of 0.203 µM and an EC50 [3] of 0.203 µM.

In the case of `C=C(C(N)=O)C(NC(=O)[C@H](Cc1c[nH]c2ccccc12)NC(=O)[C@@H](C)N(C)C(=O)C(N)Cc1c(C)cc(O)cc1C)c1ccccc1` (stereo not given in full), the EC50 [6] is reported as 1.77 to 5.15 pM and the Ki [6] is reported as 0.0109 to 0.0511 nM.

In the case of `CC[C@@H]1CN2CC[C@]3(Nc4cccc(-c5ccccc5)c4C3=O)[C@@H]2C[C@@H]1/C(=C\OC)C(=O)OC`, the Emax [7] is reported as 123%, the EC50 [8] is reported as 0.0014 µM and the EC50 [9] is reported as 0.0014 µM. The EC50 [10] was 0.0014 µM, the Emax [11] was 123% and the Emax [12] was 123%. The EC50 [13] was 0.0014 µM, the Emax [14] was 123% and the Emax [15] was 123%. It also gave an EC50 [16] of 0.0014 µM and an EC50 [17] of 0.0014 µM.

`Oc1cccc(CCN(CCc2ccccc2)CC2CC2)c1` showed an EC50 [26] of 0.0367 µM and an ED50 [27] of 6.02 nmol.

`C=C(C(N)=O)C(NC(=O)[C@H](Cc1ccccc1)NC(=O)[C@@H](C)N(C)C(=O)[C@@H](N)Cc1ccc(O)cc1)c1ccccc1` (stereo not given in full) gave an EC50 [6] of 4000 pM.

Work on `C[C@H](Cc1ccsc1)NC(=O)NC[C@H](Cc1ccc2ccccc2c1)N(C)C` yielded an EC50 [2] of 0.0524 to 0.0911 µM and an EC50 [3] of 0.0524 to 0.0911 µM.

With `CC[C@@H]1CN2CC[C@@]3(O)C(=Nc4cccc(OC)c43)[C@@H]2C[C@@H]1/C(=C\OC)C(=O)OC` the Ki [28] was 0.0072 µM, the EC50 [29] was 0.053 µM and the Ki [30] was greater than 1 µM. The EC50 [31] was 0.053 µM, the EC50 [32] was 0.053 µM and the Ki [33] was 0.06 µM.
